From PubChem BioAssay AID248 (DTP/NCI, 2004)
Values joined by “and” are separate entries in the source; they are usually repeats but may differ in a detail not shown here. Equal entries are not always repeated. Inconclusive results and toxic doses are left out.

Tested on: L1210 leukemia ip in BDF1 mice, survival T/C
Experiment: NCI In Vivo Anticancer Drug Screen. Data for tumor model L1210 Leukemia (intraperitoneal) in B6D2F1 (BDF1) mice
Conditions: endpoint: mean survival time, higher = longer survival
Method in brief: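 Tumor cells were implanted, animals were treated, and survival was followed. The result divides the treated measurement by the vehicle-control measurement.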

[1] = dose: 25.0 mg/kg/injection, schedule: Q01DX009 (ip), vehicle: saline with Tween-80
[2] = dose: 50.0 mg/kg/injection, schedule: Q01DX009 (ip), vehicle: saline with Tween-80
[3] = dose: 100.0 mg/kg/injection, schedule: Q01DX009 (ip), vehicle: Klucel (hydroxypropylcellulose) (HPC)
[4] = dose: 200.0 mg/kg/injection, schedule: Q01DX009 (ip), vehicle: Klucel (hydroxypropylcellulose) (HPC)
[5] = dose: 400.0 mg/kg/injection, schedule: Q01DX009 (ip), vehicle: Klucel (hydroxypropylcellulose) (HPC)
[6] = dose: 100.0 mg/kg/injection, schedule: Q01DX001 (ip), vehicle: Klucel (hydroxypropylcellulose) (HPC)
[7] = dose: 200.0 mg/kg/injection, schedule: Q01DX001 (ip), vehicle: Klucel (hydroxypropylcellulose) (HPC)
[8] = dose: 400.0 mg/kg/injection, schedule: Q01DX001 (ip), vehicle: Klucel (hydroxypropylcellulose) (HPC)
[9] = dose: 100.0 mg/kg/injection, schedule: Q01DX001 (ip), vehicle: saline
[10] = dose: 200.0 mg/kg/injection, schedule: Q01DX001 (ip), vehicle: saline
[11] = dose: 100.0 mg/kg/injection, schedule: Q04DX003 (ip), vehicle: Klucel (hydroxypropylcellulose) (HPC)
[12] = dose: 200.0 mg/kg/injection, schedule: Q04DX003 (ip), vehicle: Klucel (hydroxypropylcellulose) (HPC)
[13] = dose: 400.0 mg/kg/injection, schedule: Q04DX003 (ip), vehicle: Klucel (hydroxypropylcellulose) (HPC)
[14] = dose: 50.0 mg/kg/injection, schedule: Q01DX009 (ip), vehicle: Klucel (hydroxypropylcellulose) (HPC)
[15] = dose: 25.0 mg/kg/injection, schedule: Q01DX009 (ip), vehicle: Klucel (hydroxypropylcellulose) (HPC)

Cc1c(Cl)c(C)c(Cl)c(O)c1Cl (tested in a mixture with another compound)
T/C [1]: 97 % of control
T/C [2]: 93 % of control
T/C (dose: 100.0 mg/kg/injection, schedule: Q04DX002 (ip), vehicle: other): 95 % of control
T/C (dose: 200.0 mg/kg/injection, schedule: Q04DX002 (ip), vehicle: other): 90 % of control

O=C(Cc1cccc2ccccc12)N/N=C/c1ccccc1Cl
T/C [3]: 89 % of control and 90 % of control
T/C [4]: 92 % of control
T/C [5]: 86 % of control and 90 % of control

COc1ccccc1C(Cc1ccc(N2C(N)=NC(N)=NC2(C)C)cc1)C(=O)Nc1ccc(S(=O)(=O)F)cc1 (stereo not drawn)
T/C [6]: 101 % of control
T/C [7]: 101 % of control
T/C [8]: 99 % of control

CCCC(=O)OCC1OC(n2cnc3c(=S)nc(N)[nH]c32)C(OC(=O)CCC)C1OC(=O)CCC (stereo not drawn)
T/C (dose: 1.0 mg/kg/injection, schedule: Q01DX Z (ip), vehicle: carboxymethylcellulose (CMC)): 109 % of control
T/C (dose: 1.5 mg/kg/injection, schedule: Q01DX Z (ip), vehicle: carboxymethylcellulose (CMC)): 117 % of control
T/C (dose: 2.0 mg/kg/injection, schedule: Q01DX Z (ip), vehicle: carboxymethylcellulose (CMC)): 112 % of control
T/C (dose: 2.3 mg/kg/injection, schedule: Q01DX Z (ip), vehicle: carboxymethylcellulose (CMC)): 124 % of control
T/C (dose: 3.0 mg/kg/injection, schedule: Q01DX Z (ip), vehicle: carboxymethylcellulose (CMC)): 117 % of control
T/C (dose: 5.0 mg/kg/injection, schedule: Q01DX Z (ip), vehicle: carboxymethylcellulose (CMC)): 154 % of control
T/C (dose: 9.7 mg/kg/injection, schedule: Q01DX Z (oral), vehicle: carboxymethylcellulose (CMC)): 106 % of control
T/C (dose: 17.0 mg/kg/injection, schedule: Q01DX Z (ip), vehicle: carboxymethylcellulose (CMC)): 157 % of control and 159 % of control
T/C (dose: 25.0 mg/kg/injection, schedule: Q01DX Z (ip), vehicle: carboxymethylcellulose (CMC)): 152 % of control
T/C (dose: 27.0 mg/kg/injection, schedule: Q01DX Z (oral), vehicle: carboxymethylcellulose (CMC)): 115 % of control
T/C (dose: 37.0 mg/kg/injection, schedule: Q01DX Z (ip), vehicle: carboxymethylcellulose (CMC)): 112 % of control and 118 % of control
T/C (dose: 125.0 mg/kg/injection, schedule: Q01DX Z (oral), vehicle: carboxymethylcellulose (CMC)): 119 % of control

N#CCCN(CCC#N)C(=O)Nc1cccc(Cl)c1
T/C (dose: 100.0 mg/kg/injection, schedule: Q04DX003 (ip), vehicle: saline with Tween-80): 98 % of control
T/C (dose: 200.0 mg/kg/injection, schedule: Q04DX003 (ip), vehicle: saline with Tween-80): 88 % of control
T/C (dose: 400.0 mg/kg/injection, schedule: Q04DX003 (ip), vehicle: saline with Tween-80): 91 % of control

Cc1[nH]c(=S)[nH]c(=O)c1CCSC(=N)N
T/C [9]: 108 % of control
T/C [10]: 103 % of control

c1ccc2cc(SSc3ccc4ccccc4c3)ccc2c1
T/C [11]: 95 % of control
T/C [12]: 89 % of control
T/C [13]: 86 % of control

CN(C1=CC(=O)C(N(C)C2CCCCC2)=CC1=O)C1CCCCC1
T/C (dose: 7.5 mg/kg/injection, schedule: Q01DX009 (ip), vehicle: saline): 90 % of control
T/C (dose: 15.0 mg/kg/injection, schedule: Q01DX009 (ip), vehicle: saline): 93 % of control

O=C(N/N=C/c1ccc(O)cc1O)c1ccc(O)cc1
T/C (dose: 100.0 mg/kg/injection, schedule: Q04DX002 (ip), vehicle: Klucel (hydroxypropylcellulose) (HPC)): 92 % of control
T/C (dose: 200.0 mg/kg/injection, schedule: Q04DX002 (ip), vehicle: Klucel (hydroxypropylcellulose) (HPC)): 103 % of control
T/C (dose: 400.0 mg/kg/injection, schedule: Q04DX002 (ip), vehicle: Klucel (hydroxypropylcellulose) (HPC)): 103 % of control

CC(C)(C)OC(=O)c1c2ccccc2cc2ccccc12
T/C (dose: 100.0 mg/kg/injection, schedule: Q04DX002 (ip), vehicle: gum acacia): 99 % of control
T/C (dose: 200.0 mg/kg/injection, schedule: Q04DX002 (ip), vehicle: gum acacia): 101 % of control
T/C (dose: 400.0 mg/kg/injection, schedule: Q04DX002 (ip), vehicle: gum acacia): 105 % of control

ClCc1nc2ccccc2[nH]1
T/C (dose: 50.0 mg/kg/injection, schedule: Q01DX001 (ip), vehicle: saline): 101 % of control
T/C [9]: 101 % of control
T/C [11]: 105 % of control
T/C [10]: 104 % of control
T/C [12]: 102 % of control
T/C (dose: 400.0 mg/kg/injection, schedule: Q01DX001 (ip), vehicle: saline): 110 % of control
T/C [13]: 98 % of control

C[C@H]1CC2=CC(=O)CC[C@]2(C)[C@H]2CC[C@@]3(C)[C@@H](CC[C@]3(C)O)[C@H]12
T/C (dose: 12.5 mg/kg/injection, schedule: Q01DX009 (sc), vehicle: saline): 102 % of control
T/C (dose: 25.0 mg/kg/injection, schedule: Q01DX009 (ip), vehicle: saline): 97 % of control
T/C (dose: 25.0 mg/kg/injection, schedule: Q01DX009 (sc), vehicle: saline): 107 % of control
T/C (dose: 50.0 mg/kg/injection, schedule: Q01DX001 (sc), vehicle: steriod suspending solution): 101 % of control
T/C (dose: 50.0 mg/kg/injection, schedule: Q01DX009 (ip), vehicle: saline): 100 % of control
T/C (dose: 50.0 mg/kg/injection, schedule: Q01DX009 (sc), vehicle: saline): 103 % of control
T/C (dose: 100.0 mg/kg/injection, schedule: Q01DX001 (sc), vehicle: steriod suspending solution): 101 % of control
T/C (dose: 100.0 mg/kg/injection, schedule: Q01DX009 (ip), vehicle: saline): 94 % of control
T/C (dose: 100.0 mg/kg/injection, schedule: Q01DX009 (sc), vehicle: saline): 100 % of control
T/C (dose: 200.0 mg/kg/injection, schedule: Q01DX001 (sc), vehicle: steriod suspending solution): 107 % of control
T/C (dose: 200.0 mg/kg/injection, schedule: Q01DX009 (ip), vehicle: acetone): 96 % of control
T/C (dose: 200.0 mg/kg/injection, schedule: Q01DX009 (ip), vehicle: saline): 96 % of control
T/C (dose: 200.0 mg/kg/injection, schedule: Q01DX009 (sc), vehicle: acetone): 101 % of control
T/C (dose: 400.0 mg/kg/injection, schedule: Q01DX001 (sc), vehicle: steriod suspending solution): 101 % of control

Cc1cc(Cl)ccc1NC(=O)c1ccccc1Cl
T/C [3]: 101 % of control
T/C (dose: 100.0 mg/kg/injection, schedule: Q04DX003 (ip), vehicle: saline): 109 % of control
T/C [4]: 90 % of control
T/C (dose: 200.0 mg/kg/injection, schedule: Q04DX003 (ip), vehicle: saline): 106 % of control
T/C [5]: 89 % of control
T/C (dose: 400.0 mg/kg/injection, schedule: Q04DX003 (ip), vehicle: saline): 106 % of control

CCOC(=O)C[n+]1ccccc1C
T/C (dose: 50.0 mg/kg/injection, schedule: Q04DX002 (ip), vehicle: saline): 90 % of control
T/C (dose: 100.0 mg/kg/injection, schedule: Q04DX002 (ip), vehicle: saline): 97 % of control
T/C (dose: 200.0 mg/kg/injection, schedule: Q04DX002 (ip), vehicle: saline): 93 % of control

CC12CCCCC1=CC(O)CC2 (stereo not drawn)
T/C [2]: 98 % of control
T/C (dose: 100.0 mg/kg/injection, schedule: Q01DX009 (ip), vehicle: saline with Tween-80): 91 % of control
T/C (dose: 200.0 mg/kg/injection, schedule: Q01DX009 (ip), vehicle: saline with Tween-80): 94 % of control

O=C(O)C1CC2(CCC1c1ccccc1)SCCS2 (stereo not drawn)
T/C [14]: 95 % of control
T/C [6]: 97 % of control
T/C [3]: 93 % of control
T/C [7]: 100 % of control
T/C [4]: 96 % of control
T/C [8]: 96 % of control

CC(C)C1C(C(=O)O)NC(=O)C1C(=O)O (stereo not drawn)
T/C (dose: 12.0 mg/kg/injection, schedule: Q01DX009 (ip), vehicle: saline with Tween-80): 106 % of control
T/C [15]: 106 % of control
T/C [1]: 99 % of control
T/C [2]: 97 % of control
T/C [3]: 108 % of control
T/C [11]: 96 % of control
T/C [12]: 98 % of control
T/C [13]: 95 % of control

CCCCNC(=O)Oc1c(Cl)cc(Cl)c(Cl)c1[N+](=O)[O-]
T/C (dose: 12.5 mg/kg/injection, schedule: Q01DX009 (ip), vehicle: Klucel (hydroxypropylcellulose) (HPC)): 96 % of control
T/C [15]: 112 % of control
T/C [14]: 101 % of control
